In brackets after ≈: the same amount, converted by molar mass.
Assays:
[1] = Cytotoxicity against HUVEC assessed as cell viability at 64 ug/ml incubated for 24 hrs by CCK-8 assay; format: toxicity, cell-based; conditions: human, HUVEC cells, at 64 µg/mL, read-out: Activity
[2] = Induction of hemolysis in rabbit RBC at 16 ug/ml incubated for 1 hr; format: toxicity, cell-based, Oryctolagus cuniculus, Erythrocyte; conditions: red blood cells, at 16 µg/mL, read-out: Activity
[3] = Induction of hemolysis in rabbit RBC at 32 ug/ml incubated for 1 hr; format: toxicity, cell-based, Oryctolagus cuniculus, Erythrocyte; conditions: red blood cells, at 32 µg/mL, read-out: Activity
[4] = Induction of hemolysis in rabbit RBC at 64 ug/ml incubated for 1 hr; format: toxicity, cell-based, Oryctolagus cuniculus, Erythrocyte; conditions: red blood cells, at 64 µg/mL, read-out: Activity
[5] = in vitro; conditions: human, Caco-2 cells; at 64 µg/mL
[6] = system: Cryptococcus neoformans; assay: Antifungal activity against Cryptococcus neoformans H99 incubated for 72 hrs by microbroth dilution method; format: functional
[7] = system: Candida albicans; assay: Antifungal activity against Candida albicans SC5314 incubated for 24 hrs by microbroth dilution method; format: functional
[8] = system: Aspergillus fumigatus; assay: Antifungal activity against Aspergillus fumigatus 7544 incubated for 48 hrs by microbroth dilution method; format: functional
[9] = system: Candida albicans; assay: Antifungal activity against Candida albicans Y0109; format: functional
[10] = system: Candida parapsilosis; assay: Antifungal activity against Candida parapsilosis 22019; format: functional; conditions: Lodderomyces parapsilosis
[11] = system: Cryptococcus neoformans; assay: Antifungal activity against Cryptococcus neoformans 32605; format: functional
[12] = system: Nakaseomyces glabratus; assay: Antifungal activity against Candida glabrata 537; format: functional
[13] = system: Trichophyton rubrum; assay: Antifungal activity against Trichophyton rubrum cmccftla; format: functional
[14] = system: Nannizzia gypsea; assay: Antifungal activity against Microsporum gypseum; format: functional
[15] = system: Candida albicans; assay: Antifungal activity against Candida albicans 12#; format: functional
[16] = system: Candida albicans; assay: Antifungal activity against Candida albicans 25#; format: functional
[17] = system: Candida albicans; assay: Antifungal activity against Candida albicans 162; format: functional
[18] = system: Candida albicans; assay: Antifungal activity against Candida albicans 14#; format: functional
[19] = system: Candida albicans; assay: Antifungal activity against Candida albicans 305; format: functional
[20] = system: Candida albicans; assay: Antifungal activity against Candida albicans 20#; format: functional
[21] = system: Candida albicans; assay: Antifungal activity against Candida albicans 28#; format: functional
[22] = system: Candida parapsilosis; assay: Antifungal activity against Candida parapsilosis 660; format: functional; conditions: Lodderomyces parapsilosis
[23] = system: Candida parapsilosis; assay: Antifungal activity against Candida parapsilosis 90018; format: functional; conditions: Lodderomyces parapsilosis
[24] = system: Candida parapsilosis; assay: Antifungal activity against Candida parapsilosis 700; format: functional; conditions: Lodderomyces parapsilosis
[25] = system: Candida tropicalis; assay: Antifungal activity against Candida tropicalis 112936; format: functional
[26] = system: Candida tropicalis; assay: Antifungal activity against Candida tropicalis ATCC750; format: functional
[27] = system: Pichia kudriavzevii; assay: Antifungal activity against Candida krusei 463; format: functional
[28] = system: Pichia kudriavzevii; assay: Antifungal activity against Candida krusei 629; format: functional
[29] = system: Pichia kudriavzevii; assay: Antifungal activity against Candida krusei 397; format: functional
[30] = system: Pichia kudriavzevii; assay: Antifungal activity against Candida krusei 467; format: functional
[31] = system: Nakaseomyces glabratus; assay: Antifungal activity against Candida glabrata ATCC2001; format: functional
[32] = system: [Candida] auris; assay: Antifungal activity against Candida auris 791; format: functional; conditions: Candidozyma auris
[33] = system: [Candida] auris; assay: Antifungal activity against Candida auris BS12372; format: functional; conditions: Candidozyma auris
[34] = system: [Candida] auris; assay: Antifungal activity against Candida auris D12; format: functional; conditions: Candidozyma auris
[35] = target: T1, Lanosterol 14-alpha demethylase (Candida albicans (strain SC5314 / ATCC MYA-2876) (Yeast), UniProt P10613); assay: Inhibition of CYP51 in Candida albicans SC5314 assessed as lanosterol level at 0.0625 ug/ml measured after 12 hrs by GC-MS analysis (reference value: 2.18%); parameters: scale not given: the % may be the effect or the level left; conditions: dose 0.0625 µg/ml
[36] = target: T1, Lanosterol 14-alpha demethylase; assay: Inhibition of CYP51 in Candida albicans SC5314 assessed as ergosterol level at 0.0625 ug/ml measured after 12 hrs by GC-MS analysis (reference value: 72.58%); parameters: scale not given: the % may be the effect or the level left; conditions: dose 0.0625 µg/ml
[37] = target: T1, Lanosterol 14-alpha demethylase; assay: Inhibition of CYP51 in Candida albicans SC5314 assessed as eburicol level at 0.0625 ug/ml measured after 12 hrs by GC-MS analysis (reference value: 0.00%); parameters: scale not given: the % may be the effect or the level left; conditions: dose 0.0625 µg/ml
[38] = target: T1, Lanosterol 14-alpha demethylase; assay: Inhibition of CYP51 in Candida albicans SC5314 assessed as sterol level at 0.0625 ug/ml measured after 12 hrs by GC-MS analysis (reference value: 25.23%); parameters: scale not given: the % may be the effect or the level left; conditions: dose 0.0625 µg/ml
[39] = Cmax in Sprague-Dawley rat at 5 mg/kg, po by LC-MS analysis; format: ADME, organism-based; parameters: dose 5 mg/kg, route po; conditions: in vivo
[40] = Tmax in Sprague-Dawley rat at 5 mg/kg, po by LC-MS analysis; format: ADME, organism-based; conditions: in vivo
[41] = Half life in Sprague-Dawley rat at 2 mg/kg, iv by LC-MS analysis; format: ADME, organism-based; conditions: in vivo
[42] = Half life in Sprague-Dawley rat at 5 mg/kg, po by LC-MS analysis; format: ADME, organism-based; conditions: in vivo
[43] = AUC(0 to infinity) in Sprague-Dawley rat at 2 mg/kg, iv by LC-MS analysis; format: ADME, organism-based; parameters: time infinity, dose 2 mg/kg, route iv; conditions: in vivo
[44] = AUC(0 to infinity) in Sprague-Dawley rat at 5 mg/kg, po by LC-MS analysis; format: ADME, organism-based; parameters: time infinity, dose 5 mg/kg, route po; conditions: in vivo
[45] = Oral bioavailability in Sprague-Dawley rat at 5 mg/kg by LC-MS analysis; format: ADME, organism-based; conditions: in vivo
[46] = system: Aspergillus fumigatus; assay: Antifungal activity against Aspergillus fumigatus 7544 infected in ICR mouse assessed as survival rate at 20 mg/kg, po qd infected with fungus for 2 hrs prior to compound addition for 7 days and measured for 20 days; format: functional; conditions: time 20 day
[47] = system: Aspergillus fumigatus; assay: Antifungal activity against Aspergillus fumigatus 7544 infected in ICR mouse assessed as survival rate at 60 mg/kg, po qd infected with fungus for 2 hrs prior to compound addition for 7 days and measured for 20 days; format: functional; conditions: time 20 day

T1 sequence (P10613 whole entry): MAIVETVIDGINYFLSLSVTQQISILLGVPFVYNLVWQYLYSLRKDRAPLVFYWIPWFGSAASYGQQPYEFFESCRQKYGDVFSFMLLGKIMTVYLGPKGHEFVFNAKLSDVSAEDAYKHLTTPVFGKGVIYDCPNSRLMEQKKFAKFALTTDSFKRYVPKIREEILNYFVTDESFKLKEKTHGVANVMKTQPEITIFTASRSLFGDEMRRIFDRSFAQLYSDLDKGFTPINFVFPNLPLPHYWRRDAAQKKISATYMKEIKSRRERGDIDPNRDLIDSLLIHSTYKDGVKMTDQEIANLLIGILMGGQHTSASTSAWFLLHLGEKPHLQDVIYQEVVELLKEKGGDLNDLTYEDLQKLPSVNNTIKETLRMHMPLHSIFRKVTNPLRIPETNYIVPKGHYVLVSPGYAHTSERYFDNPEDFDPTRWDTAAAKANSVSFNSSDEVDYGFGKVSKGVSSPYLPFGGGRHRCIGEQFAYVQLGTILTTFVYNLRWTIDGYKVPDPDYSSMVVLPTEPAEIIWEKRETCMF

`C[C@@H]1[C@H](O)[C@@H](C)/C=C/C=C/C=C/C=C/C=C/C=C/C=C/[C@H](O[C@@H]2O[C@H](C)[C@@H](O)[C@H](N)[C@@H]2O)C[C@@H]2O[C@](O)(C[C@@H](O)C[C@@H](O)[C@H](O)CC[C@@H](O)C[C@@H](O)CC(=O)O[C@H]1C)C[C@H](O)[C@H]2C(=O)O` [AMPHOTERICIN B] gave a viability at 24 h, 64 ug/ml [1] of 78.2%, a hemolysis at 1 h, 16 ug/ml [2] of 24.7% and a hemolysis at 1 h, 32 ug/ml [3] of 65.2%. It also gave a hemolysis at 1 h, 64 ug/ml [4] of 102% and a viability at 24 h, 64 ug/ml [5] of 63.3%.

In the case of `C[C@@H](c1ncncc1F)[C@](O)(Cn1cncn1)c1ccc(F)cc1F` [VORICONAZOLE], the MIC [6] is reported as 0.0313 µg/mL (≈ 0.0896 µM), the MIC [7] is reported as 0.0313 µg/mL (≈ 0.0896 µM) and the MIC [8] is reported as 0.25 µg/mL (≈ 0.716 µM). It also gave an MIC [9] of 0.0156 µg/mL (≈ 0.0447 µM), an MIC [10] of 0.0313 µg/mL (≈ 0.0896 µM) and an MIC [11] of 0.0156 µg/mL (≈ 0.0447 µM). For the same molecule, the MIC [12] was 0.125 µg/mL (≈ 0.358 µM), the MIC [13] was 0.0625 µg/mL (≈ 0.179 µM) and the MIC [14] was 0.25 µg/mL (≈ 0.716 µM). The MIC [15] was > 64 µg/mL, the MIC [16] was > 64 µg/mL and the MIC [17] was > 64 µg/mL. For the same molecule, the MIC [18] was > 64 µg/mL, the MIC [19] was > 16 µg/mL and the MIC [20] was ≤ 0.0313 µg/mL. The MIC [21] was ≤ 0.0313 µg/mL, the MIC [22] was ≤ 0.0313 µg/mL and the MIC [23] was ≤ 0.0313 µg/mL. For the same molecule, the MIC [24] was 0.0313 µg/mL (≈ 0.0896 µM), the MIC [25] was > 16 µg/mL and the MIC [26] was 8 µg/mL (≈ 22.9 µM). The MIC [27] was 0.0625 µg/mL (≈ 0.179 µM), the MIC [28] was 0.0625 µg/mL (≈ 0.179 µM) and the MIC [29] was 0.125 µg/mL (≈ 0.358 µM). It also gave an MIC [30] of 0.125 µg/mL (≈ 0.358 µM), an MIC [31] of 0.125 µg/mL (≈ 0.358 µM) and an MIC [32] of 2 µg/mL (≈ 5.73 µM). It also gave an MIC [33] of 2 µg/mL (≈ 5.73 µM), an MIC [34] of 1 µg/mL (≈ 2.86 µM) and an Activity [35] of 5.38%. The Activity [36] was 1.63%, the Activity [37] was 87.15% and the Activity [38] was 5.84%. It also gave a Cmax [39] of 877 ng/mL, a Tmax [40] of 53.4 min and a half-life [41] of 234 min. The half-life [42] was 40.2 min, the AUC(0-inf) [43] was 7200 ng·h/mL and the AUC(0-inf) [44] was 2530 ng·h/mL. For the same molecule, the bioavailability [45] was 26%, the Activity [46] was 60% and the Activity [47] was 100%. The viability at 24 h, 64 ug/ml [1] was 93.4%, the hemolysis at 1 h, 64 ug/ml [4] was 1.07% and the viability at 24 h, 64 ug/ml [5] was 103%.

From ChEMBL document CHEMBL5150076, “Discovery of Novel Orally Bioavailable Triazoles with Potent and Broad-Spectrum Antifungal Activity In Vitro and In Vivo” (J Med Chem, 2022)
